These results are taken from patent US5665724A, “Substituted pyrimidinylaminothiazole derivatives useful as platelet aggregation inhibitors” (Ortho Pharmaceutical Corporation, priority 1995, dated 1997).

In assay [1] the test system is platelets (platelet aggregation). Put plainly: Platelet aggregation inhibition (gel-filtered platelets, thrombin or ADP agonist, aggregometer). Type of assay: cell-based. The note with it: 37° C.; for inhibition at 50 µM: Platelet, 50 μM compound, three minutes; for IC50: % Inhibition Platelet Aggregation @ 50 μM, read-out: Platelet Aggregation, concentration given in lieu of a percentage (IC50). As to the method: The percentage of platelet aggregation is calculated as an increase in light transmission of drug treated platelet concentrate vs control treated platelet concentrate. Blood is obtained from drug free, normal donors and placed into tubes containing 0.13M sodium citrate (two sources are routinely used: platelet concentrate obtained from Biological Specialty Corp., Lansdale, Pa. or whole blood obtained from donors). Platelet rich plasma (PRP) is collected by centrifugation of the concentrate or whole blood at 130×g for 15 minutes at 25° C. The PRP (5 mL) is gel filtered through Sepharose 2B (bed volume 50 mL), and the platelet count is adjusted to 2×10^7 platelets per sample. The following constituents are added to a siliconized cuvette: 250 μL of the concentrated platelet filtrate, 100 μL of Tyrode's buffer (0.14M NaCl, 0.0027M KCl, 0.012M NaHCO3, 0.76 mM Na2 HPO4, 0.0055M glucose and 2 mg/mL BSA pH 7.4), 50 μL of 2 mM calcium and test drug […]. Aggregation is monitored in a dual channel Chrono-log Aggregometer for three minutes following the addition of agonist (thrombin 50 μL of 1 unit/mL, or ADP 50 μL of 100 μM). The final assay volume is 500 μL. The reaction takes place at 37° C. The peak aggregation response is calculated as the increase in light transmission units over a three minute period. The difference of the increase in light transmission between control and drug treated platelets is then expressed as a percent of the nondrug treated controls.

Assay [2] deals with fibrinogen binding to activated platelets. In words: 125I-Fibrinogen binding to activated platelets. To be noted: thrombin-activated platelets, 125I-fibrinogen 0.15 μM; for % Inhibition Fibrinogen Binding @ 30 μM: 30 μM compound, 10 minutes, room temperature; for IC50: printed in column % Inhibition Fibrinogen Binding @ 30 μM, read-out: Fibrinogen Binding, IC50 (concentration given in lieu of a percentage). How it is done: The compounds of the invention as identified above are evaluated for platelet aggregation inhibition activity as indicated by the percentage of non-aggregated platelets which are available for binding in accordance with the following procedure.
^125 I-Fibrinogen binding to activated platelets is a modification of the procedure described by Bennett et al., 1988. Briefly, 40 mL of PRP (obtained from Biological Specialty Corp., Lansdale, Pa.) are centrifuged at 120×g to remove contaminating red cells. Aspirin (50 μM) is added and the PRP is incubated at 37° C. for 20 minutes. The pH of the PRP is adjusted to 6.5 with 3.8% sodium citrate and 0.9 μM of PGE1 is added. Platelets are concentrated by a 300×g centrifugation (10 minutes) and the pellet is resuspended in 4 mL. of Tyrode's buffer. The platelet suspension (4 mL) is gel-filtered through a Sepharose-2B column (50 mL bed volume). The platelet count is adjusted to 1×10^8 platelets per 200 mL. The binding reaction is performed in polystyrene tubes (final volume […]). Reagents are added in the following order: 80 mL of Tyrode's buffer, 50 mL of CaCl2 (final concentration (f.c.) […]) and 50 mL of thrombin (f.c. 0.1 unit/mL). The platelet suspension is then added and the mixture is allowed to incubate at room temperature for 2 minutes. Hirudin (50 mL, f.c. 0.5 unit/mL) is immediately added to prevent the catalytic activity of thrombin. Various concentrations of the compound to be tested […] with the competing radioligand ^125 I-fibrinogen (f.c. of 0.15 μM) are added. The mixture is incubated for 10 minutes at room temperature. To terminate the binding reaction the platelets are sedimented (10,000×g for 3 minutes) through silicone oil (3:1 hi-phenol 550/methyl silicone 200, W. F. Nye, Inc., New Bedford, Mass.), in an Eppendorf centrifuge.
The tips of the centrifuge tubes containing the pelleted platelets are cut off and counted for ^125 I-fibrinogen associated with the stimulated platelets. The amount of platelet radioactivity measured in the presence of nonlabeled fibrinogen (4 mg/mL) is considered the nonspecific binding. All samples are repeated in triplicate.
Data are expressed as a percent at concentrations of 30 μM of specifically bound ^125 I-fibrinogen to the platelets in Table 6 below. Positive percentages of fibrinogen binding indicates higher activity for inhibiting platelet aggregation since only non-aggregated or free platelets are available for fibrinogen binding. Alternatively, a concentration is provided in lieu of a percentage to indicate the IC50 of concentration of compound which provides 50% fibrinogen binding.

`CCN(CC)CCCNC(=O)c1cnc(Nc2nc(-c3ccc(C)cc3)cs2)nc1C(F)(F)F` [Cmpd 2]: the inhibition at 50 µM in assay [1] turned out to be 75%. The “% Inhibition Fibrinogen Binding @ 30 μM” value in assay [2] was determined as 12%.
Consider `O=C(NCCCn1ccnc1)c1cnc(Nc2nc(-c3cccc(C(F)(F)F)c3)cs2)nc1C(F)(F)F` [Cmpd 3], for which the inhibition at 50 µM in assay [1] stood at 55%. The “% Inhibition Fibrinogen Binding @ 30 μM” value in assay [2] turned out to be 4%.
As for `NCCCNC(=O)c1cnc(Nc2nc(-c3cccc(C(F)(F)F)c3)cs2)nc1C(F)(F)F` [Cmpd 4], the IC50 in assay [1] came out at 10 µM. Also, the “% Inhibition Fibrinogen Binding @ 30 μM” value in assay [2] is on record as 50%.
As for `COc1ccc(-c2csc(Nc3ncc(C(=O)NCCCN(C)C)c(C(F)(F)F)n3)n2)cc1` [Cmpd 5], in assay [1], the inhibition at 50 µM amounted to 96%. For the same compound, in assay [2], the “% Inhibition Fibrinogen Binding @ 30 μM” value was found to be 47%.
Regarding `O=C(NCCCNC1CCCCC1)c1cnc(Nc2nc(-c3cccc(C(F)(F)F)c3)cs2)nc1C(F)(F)F` [Cmpd 6], the IC50 in assay [1] was found to be 15 µM; in assay [2] it was 30 µM.
Compound `O=C(NCCCN1CCCCCC1)c1cnc(Nc2nc(-c3cccc(C(F)(F)F)c3)cs2)nc1C(F)(F)F` [Cmpd 7] returned an inhibition at 50 µM in assay [1] of 95%. Further, the “% Inhibition Fibrinogen Binding @ 30 μM” value in assay [2] came to 14%.
For `O=C(NCCCNC1CCCC1)c1cnc(Nc2nc(-c3cccc(C(F)(F)F)c3)cs2)nc1C(F)(F)F` [Cmpd 8] the same measures were 85% and 50%.
For the compound `CCCCNCCCNC(=O)c1cnc(Nc2nc(-c3cccc(C(F)(F)F)c3)cs2)nc1C(F)(F)F` [Cmpd 9], testing at 50 µM in assay [1] gave an inhibition of 96%. In assay [2], the IC50 is 3.4 µM.
In assay [1], `O=C(NCCCNC1CCCCC1)c1cnc(Nc2nc(-c3cccc(C(F)(F)F)c3)cs2)nc1-c1ccccc1` [Cmpd 10] had an inhibition at 50 µM of 25%. The “% Inhibition Fibrinogen Binding @ 30 μM” value in assay [2] is listed as 15%.
For `O=C(NCCCN1CCCC1=O)c1cnc(Nc2nc(-c3cccc(C(F)(F)F)c3)cs2)nc1C(F)(F)F` [Cmpd 11] the same measures were 25% and 10%.
Taken in the same sequence, the figures for `CN1CCN(CCCNC(=O)c2cnc(Nc3nc(-c4cccc(C(F)(F)F)c4)cs3)nc2C(F)(F)F)CC1` [Cmpd 12] were 90% and 47%.
For `O=C(NCCCN1CCCCC1)c1cnc(Nc2nc(-c3cccc(Cl)c3)cs2)nc1C(F)(F)F` [Cmpd 13] the same measures were 94% and 16%.
With `O=C(NCCCN1CCCCCC1)c1cnc(Nc2nc(-c3cccc(Cl)c3)cs2)nc1C(F)(F)F` [Cmpd 14], in assay [1], 50 µM produced 98% inhibition. In addition, the “% Inhibition Fibrinogen Binding @ 30 μM” value in assay [2] is 15%.
On to `O=C(NCCCNC1CCCCC1)c1cnc(Nc2nc(-c3cccc(Cl)c3)cs2)nc1C(F)(F)F` [Cmpd 15], for which, in assay [1], the IC50 stood at 14.8 µM. Moreover, the “% Inhibition Fibrinogen Binding @ 30 μM” value in assay [2] was determined as 73%.
`CCCNCCCNC(=O)c1cnc(Nc2nc(-c3cccc(Cl)c3)cs2)nc1C(F)(F)F` [Cmpd 16] gave an inhibition at 50 µM in assay [1] of 96%. In assay [2], the “% Inhibition Fibrinogen Binding @ 30 μM” value is recorded as 20%.
Taken in the same sequence, the figures for `CCCCNCCCNC(=O)c1cnc(Nc2nc(-c3ccc(C)cc3)cs2)nc1C(F)(F)F` [Cmpd 17] were 36% and 43%.
For `Cc1sc(Nc2ncc(C(=O)NCCCNC3CCCCC3)c(C(F)(F)F)n2)nc1-c1ccccc1` [Cmpd 18], in assay [1], 50 µM produced 58% inhibition. For the same compound, the “% Inhibition Fibrinogen Binding @ 30 μM” value in assay [2] was determined as 47%.

One may read the inhibition as how much of the control response was suppressed. Low readings indicate a response near the control, high ones a response far below the control.
